Assay results from patent publication US10028961B2, “Therapeutically active compounds and their methods of use” (AGIOS PHARMACEUTICALS, INC., priority 2013, dated 2018).

How the values were obtained:
[1] = system: U87MG pLVX-IDH2 R140Q-neo cells; test: U87MG pLVX-IDH2 R140Q-neo cell based assay, 2-HG by LC-MS; conditions: Homo sapiens, U-87 MG
[2] = biological target: IDH1 wt/IDH1 R132H heterodimer (Homo sapiens (Human), UniProt O75874, R132H); test: In vitro assay for IDH1m R132H inhibitors, IDH1 wt/IDH1 R132H heterodimer, NADPH depletion (diaphorase/resazurin); type: biochemical; conditions: IDH1 wt/R132H heterodimer, NADPH/NADP, not saturated; read-out: IDH1 wt/R132H NADPH/NADP IC50 not saturated
In short: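 Read-out is NADPH left after α-KG reduction to 2-HG, measured via resorufin fluorescence after 5 min diaphorase/resazurin step at 25° C. Enzyme is sf9-expressed IDH1wt-his/IDH1R132H-flag heterodimer, pre-incubated 1 hr at room temperature with compound and cofactor. IC50s from DMSO stocks diluted 1:50.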

[3] = system: Neurosphere cells (TS603); test: Cellular assay for IDH1m R132H inhibitors, 2-HG by LC-MS in neurosphere cells (TS603); type: cell-based; conditions: 2-HG in media at 48 hours
In short: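 TS603 neurosphere cells in NeuroCult medium were dosed with compound (0.25% DMSO final) at 37 C, 5% CO2. After 48 hours, medium 2-HG was measured by LC-MS. At 72 hours, viability was read by CellTiter-Glo luminescence.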

[4] = biological target: IDH1 wt/IDH1 R132C heterodimer (Homo sapiens (Human), UniProt O75874, R132C); test: In vitro assay for IDH1m R132C inhibitors, IDH1 wt/IDH1 R132C heterodimer, NADPH depletion (diaphorase/resazurin); type: biochemical; conditions: NADPH/NADP
In short: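 Remaining NADPH was measured by diaphorase/resazurin conversion (5 min, 25 °C) as resorufin fluorescence, Ex 544/Em 590. DMSO was diluted 1:50 into the reaction, and IC50s were derived.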

Sequence of IDH1 wt/IDH1 R132C heterodimer (O75874 whole entry R132C): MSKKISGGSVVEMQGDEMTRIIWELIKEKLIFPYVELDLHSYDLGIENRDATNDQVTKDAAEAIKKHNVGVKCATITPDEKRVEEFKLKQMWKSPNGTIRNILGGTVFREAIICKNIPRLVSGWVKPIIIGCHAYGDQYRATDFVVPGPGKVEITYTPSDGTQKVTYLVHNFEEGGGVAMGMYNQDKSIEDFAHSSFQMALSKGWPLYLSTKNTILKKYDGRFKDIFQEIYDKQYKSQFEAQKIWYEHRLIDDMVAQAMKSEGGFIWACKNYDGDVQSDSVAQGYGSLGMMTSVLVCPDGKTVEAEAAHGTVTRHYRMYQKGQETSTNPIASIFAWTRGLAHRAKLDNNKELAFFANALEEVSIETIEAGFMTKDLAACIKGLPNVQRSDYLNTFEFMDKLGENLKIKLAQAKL
Sequence of IDH1 wt/IDH1 R132C heterodimer (O75874 whole entry, stated change not applied): as the sequence (O75874 whole entry R132C) above, with C132R counted along it
Sequence of IDH1 wt/IDH1 R132H heterodimer (O75874 whole entry R132H): as the sequence (O75874 whole entry R132C) above, with C132H counted along it
Sequence of IDH1 wt/IDH1 R132H heterodimer (O75874 whole entry, stated change not applied): as the sequence (O75874 whole entry R132C) above, with C132R counted along it

| Structure (SMILES) | IC50 [1] [nM] | IC50 [2] [nM] | IC50 [3] [nM] | IC50 [4] [nM] |
| --- | --- | --- | --- | --- |
| FC1(F)CCC(Nc2nc(Nc3ccnc(C(F)(F)F)c3)nc(-c3cccc(C(F)(F)F)n3)n2)C1 (stereo not drawn) [Compound 178] | < 50 | < 50 | < 50 | < 50 |
| N#Cc1cc(Nc2nc(NC3CCC(F)(F)C3)nc(-c3cccc(C(F)(F)F)n3)n2)ccn1 (stereo not drawn) [Compound 181] | < 50 | < 50 | < 50 | < 50 |
| FC1(F)CCC(Nc2nc(NC3Cc4ccc(Cl)cc4C3)nc(-c3cccc(C(F)(F)F)n3)n2)C1 (stereo not drawn) [Compound 182] | < 50 | < 50 | < 50 | < 50 |
| CC(F)(F)c1cccc(-c2nc(NC3CC(F)(F)C3)nc(NC3CC(F)(F)C3)n2)n1 [Compound 187] | < 50 | < 50 | < 50 | < 50 |
| N#CC1(c2cc(Nc3nc(NC4CCC(F)(F)CC4)nc(-c4cccc(C(F)(F)F)n4)n3)ccn2)CC1 [Compound 189] | < 50 | < 50 | < 50 | < 50 |
| FC1(F)CCC(Nc2nc(NC3CC4(C3)CC(F)(F)C4)nc(-c3cccc(C(F)(F)F)n3)n2)C1 (stereo not drawn) [Compound 191] | < 50 | < 50 | < 50 | < 50 |
| FC1(F)CCC(Nc2nc(Nc3ccnc(C(F)(F)F)c3)nc(-c3cccc(C(F)(F)F)n3)n2)CC1 [Compound 192] | < 50 | < 50 | < 50 | < 50 |
| C[C@@H](Nc1nc(NC(C2CC2)C2CC2)nc(-c2cccc(C(F)(F)F)n2)n1)C1CC1 [Compound 193] | < 50 | < 50 | < 50 | < 50 |
| Fc1ccc([C@H]2C[C@@H](Nc3nc(NC4CCC(F)(F)C4)nc(-c4cccc(C(F)(F)F)n4)n3)C2)cc1 (stereo partly drawn) [Compound 199] | < 50 | < 50 | < 50 | < 50 |
| CC(Nc1nc(N[C@H](C)C2CC2)nc(-c2cccc(C(F)(F)F)n2)n1)C(F)(F)F (stereo partly drawn) [Compound 203] | < 50 | < 50 | < 50 | < 50 |
| N#Cc1cc(Nc2nc(NC3CC(F)(F)C3)nc(-c3cccc(C(F)(F)F)n3)n2)ccn1 [Compound 213] | < 50 | < 50 | < 50 | < 50 |
| CC(CC#N)Nc1nc(N[C@H](C)C2CC2)nc(-c2cccc(C(F)(F)F)n2)n1 (stereo partly drawn) [Compound 214] | < 50 | < 50 | < 50 | < 50 |
| FC1(F)CCC(Nc2nc(NC3CCN(c4ccccn4)C3)nc(-c3cccc(C(F)(F)F)n3)n2)C1 (stereo not drawn) [Compound 222] | 100 to 1000 | < 50 | < 50 | 50 to 100 |
| FC1(F)CCC(Nc2nc(NC3CCC(F)(F)CC3)nc(-c3csc(C(F)(F)F)n3)n2)CC1 [Compound 223] | < 50 | < 50 | < 50 | 50 to 100 |
| FC(F)c1cccc(-c2nc(NC3CCC(F)(F)CC3)nc(NC3CCC(F)(F)CC3)n2)n1 [Compound 224] | < 50 | < 50 | < 50 | < 50 |
| N#CC1(c2cc(Nc3nc(NCC(F)(F)F)nc(-c4cccc(C(F)(F)F)n4)n3)ccn2)CC1 [Compound 226] | < 50 | < 50 | < 50 | 50 to 100 |
| FC1(F)CCC(Nc2nc(NC3CCN(c4ncccn4)C3)nc(-c3cccc(C(F)(F)F)n3)n2)C1 (stereo not drawn) [Compound 227] | 100 to 1000 | < 50 | < 50 | 50 to 100 |
| N#CC1(c2cc(Nc3nc(NC4CC5(C4)CC(F)(F)C5)nc(-c4cccc(C(F)(F)F)n4)n3)ccn2)CC1 [Compound 229] | < 50 | < 50 | < 50 | 50 to 100 |
| CC(C)(CC#N)Nc1nc(Nc2ccnc(C(C)(F)F)c2)nc(-c2cccc(C(F)(F)F)n2)n1 [Compound 231] | < 50 | < 50 | < 50 | 50 to 100 |
| FC1(F)CCC(Nc2nc(NC3CCC(F)(F)C3)nc(-c3nccc(C(F)(F)F)n3)n2)C1 (stereo not drawn) [Compound 237] | < 50 | < 50 | < 50 | < 50 |
| CC(C)(O)CNc1nc(Nc2cc(F)cc(C#N)c2)nc(-c2cccc(C(F)(F)F)n2)n1 [Compound 244] | < 50 | 50 to 100 | < 50 | 100 to 1000 |
| CC(C)(C)Nc1nc(Nc2cc(F)cc(C#N)c2)nc(-c2nccc(C(F)(F)F)n2)n1 [Compound 245] | < 50 | 50 to 100 | < 50 | 100 to 1000 |
| CC(C)(C#N)Nc1nc(Nc2ccnc(C(C)(F)F)c2)nc(-c2cccc(C(F)(F)F)n2)n1 [Compound 247] | < 50 | 50 to 100 | < 50 | 50 to 100 |
| CC(CC#N)Nc1nc(Nc2ccnc(C(C)(F)F)c2)nc(-c2cccc(C(F)(F)F)n2)n1 (stereo not drawn) [Compound 250] | < 50 | 50 to 100 | < 50 | 100 to 1000 |
| FC1(F)CCC(Nc2nc(NC3CCC(F)(F)C3)nc(-c3cccc(OC(F)(F)F)n3)n2)C1 (stereo not drawn) [Compound 252] | < 50 | 50 to 100 | 50 to 100 | 100 to 1000 |
| CC(C#N)Nc1nc(Nc2ccnc(C(C)(F)F)c2)nc(-c2cccc(C(F)(F)F)n2)n1 (stereo not drawn) [Compound 253] | < 50 | 50 to 100 | < 50 | 100 to 1000 |
| FC1(F)CC(Nc2nc(NC3CC(F)(F)C3)nc(-c3nccc(C(F)(F)F)n3)n2)C1 [Compound 256] | < 50 | 100 to 1000 | < 50 | 50 to 100 |
| N#CC1(c2cc(Nc3nc(NC4CCC(F)(F)C4)nc(-c4nccc(C(F)(F)F)n4)n3)ccn2)CC1 (stereo not drawn) [Compound 261] | < 50 | 100 to 1000 | 50 to 100 | 50 to 100 |
| C[C@@H](Nc1nc(N[C@H](C)C2CC2)nc(-c2nccc(C(F)(F)F)n2)n1)C1CC1 [Compound 268] | 50 to 100 | 100 to 1000 | < 50 | < 50 |
| FC1(F)CCC(Nc2nc(NC3CCC(F)(F)CC3)nc(-c3nccc(C(F)(F)F)n3)n2)CC1 [Compound 293] | 50 to 100 | 100 to 1000 | ≥ 1000 | 100 to 1000 |
